Source: paper PMC9629851, “Cardiac myosin filaments are directly regulated by calcium” (The Journal of General Physiology, 2022)

What was measured:
[1] = target: T1, β-cardiac full-length myosin (Bos taurus, UniProt Q9BE39); experiment: basal ATPase, enzymatically coupled assay on purified myosin; type: biochemical
T1 construct: gene MYH7; full-length myosin in synthetic thick filaments; also HMM and S1-subfragment

[2] = target: T2, Human β-cardiac myosin (2-hep and 25-hep HMM) (Homo sapiens, UniProt P12883); experiment: basal ATPase assay of recombinant HMM; type: biochemical
T2 construct: gene MYH7
T2 sequence (P12883 1-855): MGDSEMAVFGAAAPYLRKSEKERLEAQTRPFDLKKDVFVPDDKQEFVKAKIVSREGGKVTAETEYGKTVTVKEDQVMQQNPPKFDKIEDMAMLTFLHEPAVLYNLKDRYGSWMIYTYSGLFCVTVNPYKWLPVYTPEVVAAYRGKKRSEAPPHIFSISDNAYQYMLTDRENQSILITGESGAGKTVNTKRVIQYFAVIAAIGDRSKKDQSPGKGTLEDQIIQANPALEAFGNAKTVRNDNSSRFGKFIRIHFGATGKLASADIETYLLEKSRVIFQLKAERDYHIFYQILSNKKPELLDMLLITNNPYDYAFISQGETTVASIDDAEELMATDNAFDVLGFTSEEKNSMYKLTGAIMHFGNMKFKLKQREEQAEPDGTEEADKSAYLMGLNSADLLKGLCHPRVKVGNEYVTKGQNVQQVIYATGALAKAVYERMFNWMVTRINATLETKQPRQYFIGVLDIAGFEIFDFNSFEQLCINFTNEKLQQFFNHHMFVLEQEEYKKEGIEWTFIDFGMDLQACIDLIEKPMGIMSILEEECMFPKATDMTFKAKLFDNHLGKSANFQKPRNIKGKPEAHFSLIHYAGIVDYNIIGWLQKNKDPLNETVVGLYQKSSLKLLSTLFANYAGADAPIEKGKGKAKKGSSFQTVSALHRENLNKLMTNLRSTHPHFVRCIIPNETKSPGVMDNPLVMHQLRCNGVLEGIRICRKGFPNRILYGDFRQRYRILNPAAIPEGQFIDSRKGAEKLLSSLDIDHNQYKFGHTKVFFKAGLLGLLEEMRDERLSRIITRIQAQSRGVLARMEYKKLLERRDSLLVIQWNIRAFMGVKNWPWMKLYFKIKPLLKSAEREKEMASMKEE

T1 sequence (Q9BE39 whole entry, the tested form may be a part): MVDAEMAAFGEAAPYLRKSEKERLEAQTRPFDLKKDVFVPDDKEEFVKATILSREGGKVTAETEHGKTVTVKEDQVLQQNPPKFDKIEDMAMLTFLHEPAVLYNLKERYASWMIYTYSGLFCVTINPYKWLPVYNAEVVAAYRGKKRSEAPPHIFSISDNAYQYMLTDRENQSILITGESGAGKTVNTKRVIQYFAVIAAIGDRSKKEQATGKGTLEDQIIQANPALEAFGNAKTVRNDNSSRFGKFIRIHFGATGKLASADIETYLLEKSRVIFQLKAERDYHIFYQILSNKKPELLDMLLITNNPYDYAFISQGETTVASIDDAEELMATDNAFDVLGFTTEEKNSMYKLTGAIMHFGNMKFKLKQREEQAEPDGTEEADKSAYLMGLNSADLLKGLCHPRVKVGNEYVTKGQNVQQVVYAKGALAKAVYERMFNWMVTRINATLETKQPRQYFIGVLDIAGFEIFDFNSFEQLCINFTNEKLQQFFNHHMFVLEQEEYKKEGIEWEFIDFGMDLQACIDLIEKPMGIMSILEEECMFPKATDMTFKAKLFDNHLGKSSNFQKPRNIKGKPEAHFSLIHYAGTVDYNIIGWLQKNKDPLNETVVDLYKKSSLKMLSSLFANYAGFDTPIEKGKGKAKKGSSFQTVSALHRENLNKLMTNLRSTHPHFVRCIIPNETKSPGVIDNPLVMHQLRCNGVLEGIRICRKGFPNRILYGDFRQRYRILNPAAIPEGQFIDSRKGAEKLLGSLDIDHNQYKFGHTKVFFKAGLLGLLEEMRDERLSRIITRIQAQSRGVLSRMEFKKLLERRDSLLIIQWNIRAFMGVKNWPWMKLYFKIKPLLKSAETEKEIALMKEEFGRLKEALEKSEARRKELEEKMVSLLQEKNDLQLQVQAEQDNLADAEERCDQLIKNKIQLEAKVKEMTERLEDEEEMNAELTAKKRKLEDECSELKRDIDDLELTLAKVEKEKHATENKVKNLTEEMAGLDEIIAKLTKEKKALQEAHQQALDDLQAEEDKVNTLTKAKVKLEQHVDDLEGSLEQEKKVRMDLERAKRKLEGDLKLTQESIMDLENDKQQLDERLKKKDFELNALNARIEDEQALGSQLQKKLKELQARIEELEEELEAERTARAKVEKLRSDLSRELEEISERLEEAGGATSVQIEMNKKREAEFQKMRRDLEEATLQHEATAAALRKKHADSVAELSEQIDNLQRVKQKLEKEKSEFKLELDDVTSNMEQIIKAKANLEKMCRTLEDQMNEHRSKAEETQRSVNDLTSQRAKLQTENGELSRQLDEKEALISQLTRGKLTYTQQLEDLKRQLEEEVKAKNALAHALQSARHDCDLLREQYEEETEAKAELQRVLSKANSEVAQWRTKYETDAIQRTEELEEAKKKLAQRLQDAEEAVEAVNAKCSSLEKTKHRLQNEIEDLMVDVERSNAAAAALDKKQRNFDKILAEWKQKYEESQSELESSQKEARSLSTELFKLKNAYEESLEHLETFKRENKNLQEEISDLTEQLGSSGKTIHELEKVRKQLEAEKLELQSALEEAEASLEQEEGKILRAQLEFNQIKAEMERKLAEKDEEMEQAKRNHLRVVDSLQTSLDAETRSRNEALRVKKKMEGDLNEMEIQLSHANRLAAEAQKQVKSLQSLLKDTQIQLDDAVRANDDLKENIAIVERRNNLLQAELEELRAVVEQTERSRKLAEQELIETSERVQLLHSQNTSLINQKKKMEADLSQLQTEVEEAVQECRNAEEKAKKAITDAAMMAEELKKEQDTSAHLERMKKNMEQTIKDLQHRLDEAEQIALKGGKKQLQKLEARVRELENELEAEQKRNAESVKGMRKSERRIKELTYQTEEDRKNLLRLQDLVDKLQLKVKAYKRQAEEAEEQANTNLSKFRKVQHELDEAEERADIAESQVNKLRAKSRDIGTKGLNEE

Nc1ncnc2c1ncn2[C@@H]1O[C@H](COP(=O)(O)OP(=O)(O)OP(=O)(O)O)[C@@H](O)[C@H]1O [ATP]
Raw values at pCa 8 [1]: 0.03 ± 0.01 s^−1 | Raw values at pCa 8 [2]: 0.1 ± 0.05 s^−1
